ChEMBL document CHEMBL1201862, “PubChem BioAssay data set” (2004)
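The compound was tested at five concentrations on cells cultured in 96-well plates, with a 48-hour exposure period. The concentration for 50% growth inhibition is given as GI50.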 Active and inactive are the calls of the source. Rule as the data show it: active = GI50 up to about 1.1 µM and inactive = higher.

Legend:
Experiment in all cases: inhibition of tumour cell growth, NCI panel, 48 h
LOX IMVI = tested on: LOX IMVI
OVCAR-3 = tested on: OVCAR-3
SNB-75 = tested on: SNB-75
ACHN = tested on: ACHN
HL-60 = tested on: HL-60
CCRF-CEM = tested on: CCRF-CEM
HCT-116 = tested on: HCT-116
TK-10 = tested on: TK-10
NCI-H23 = tested on: NCI-H23
786-0 = tested on: 786-0
SK-MEL-28 = tested on: SK-MEL-28
SK-OV-3 = tested on: SK-OV-3
NCI-H522 = tested on: NCI-H522
SF-268 = tested on: SF-268
SF-539 = tested on: SF-539
OVCAR-5 = tested on: OVCAR-5
UO-31 = tested on: UO-31

Measured: GI50

Cc1ccc(S(=O)(=O)N2CCN(C=S)CC2)cc1
inactive: LOX IMVI > 100 µM | OVCAR-3 > 100 µM | SNB-75 > 100 µM | ACHN > 100 µM | HL-60 > 100 µM | CCRF-CEM > 100 µM | HCT-116 > 100 µM | TK-10 > 100 µM | NCI-H23 > 100 µM | 786-0 > 100 µM | SK-MEL-28 > 100 µM | SK-OV-3 > 100 µM | NCI-H522 > 100 µM | SF-268 > 100 µM | SF-539 > 100 µM | OVCAR-5 > 100 µM | UO-31 > 100 µM

COC12C=C(C)C(CC1)CC2C(=O)O (stereo not given)
inactive: LOX IMVI > 100 µM | OVCAR-3 > 100 µM | SNB-75 > 100 µM | ACHN > 100 µM | HL-60 > 100 µM | CCRF-CEM > 100 µM | HCT-116 > 100 µM | TK-10 > 100 µM | NCI-H23 > 100 µM | 786-0 > 100 µM | SK-MEL-28 > 100 µM | SK-OV-3 > 100 µM | NCI-H522 > 100 µM | SF-268 > 100 µM | SF-539 > 100 µM | OVCAR-5 > 100 µM | UO-31 > 100 µM

CC[C@@H](C)[C@@H]1NC(=O)C(C(C)=O)=C1O
inactive: LOX IMVI 26.1 µM | OVCAR-3 27.6 µM | SNB-75 25.4 µM | ACHN 16.5 µM | HL-60 53.8 µM | CCRF-CEM 5.19 µM | HCT-116 18.7 µM | TK-10 40.6 µM | NCI-H23 20.1 µM | 786-0 22.4 µM | SK-MEL-28 3.02 µM | SK-OV-3 23.2 µM | NCI-H522 20.1 µM | SF-268 24.1 µM | SF-539 23.1 µM | OVCAR-5 40.7 µM | UO-31 30.4 µM

CCCCCC/C=C1\CCC(CN2CCOCC2)C1=O (stereo not given)
inactive: LOX IMVI 10.2 µM | OVCAR-3 18.5 µM | SNB-75 21 µM | ACHN 17.4 µM | HL-60 2.77 µM | CCRF-CEM 3.24 µM | HCT-116 14.4 µM | TK-10 13.4 µM | NCI-H23 16.9 µM | 786-0 4.23 µM | SK-MEL-28 16.9 µM | SK-OV-3 35.8 µM | NCI-H522 7.87 µM | SF-268 19.6 µM | SF-539 16.9 µM | OVCAR-5 20.3 µM | UO-31 14.3 µM

Nc1nc2[nH]cnc2c(=O)[nH]1
inactive: LOX IMVI > 100 µM | OVCAR-3 > 100 µM | SNB-75 90.6 µM | ACHN > 100 µM | HL-60 > 100 µM | CCRF-CEM > 100 µM | HCT-116 > 100 µM | TK-10 > 100 µM | NCI-H23 > 100 µM | 786-0 > 100 µM | SK-MEL-28 > 100 µM | SK-OV-3 > 100 µM | NCI-H522 > 100 µM | SF-268 > 100 µM | SF-539 > 100 µM | OVCAR-5 > 100 µM | UO-31 > 100 µM
